Patent US20230218555A1, “CREATINE, ITS DERIVATIVES, COMPOSITIONS AND METHODS OF USE THEREOF” (priority 2021, published 2023)
“Also recorded” adds a separate entry of the source.

Legend:
Assay type in all cases: in vivo, human
[1] = tested on: post trauma pain in the pinned ankle; experiment: Example 34: ankle pain after surgical insertion of metal screws; settings: prior applications of C15 formulations
Method: A subject with above described post trauma pain at the end of each day experienced painful discomfort in the pinned ankle. […] Complete relief lasted nearly 24 hours. At the end of the next day, the ankle was as painful as the days before. Subject applied 6% C20 in same liquid vehicle.

[2] = tested on: osteoarthritis of numerous joints; experiment: Example 19: abdominal subcutaneous injections
Method: A physician subject with continually worsening, for 15-16 years, painful osteoarthritis of numerous joints (almost entire spine, wrists, right shoulder, knees and most recently the feet) on one day at 11:30 AM self injected subcutaneously the right abdominal area with 3 ml of a sterile aqueous solution that they had prepared containing N-acetyl ethyl creatinate 1%, arginine 0.25%, pH 7. Using 1 ml insulin syringes with short 8 mm needles 1 ml of the solution was injected into each of 3 sites. Ten minutes later their whole body was 95+% pain free and remained so for 3.5 hours when pain was sensed to be returning. Pain in usual severity returned within another 20-30 minutes.
The next day at 9:00 AM the subject injected 5 sites, each with 1 ml of the same solution. Within 10 minutes their whole body again was 95+% pain free. This almost complete pain free state was maintained for 4 hours when very mild pain in the knees was sensed. Pain in knees and in cervical spine returned to usual degree of severity within an ensuing period of about 20 minutes.

[3] = tested on: muscular pain of upper right back, dystonia; experiment: Example 23: pain of dystonia, local subcutaneous injections
Method: Five sites of the upper back were injected with 0.3 ml C15 in aqueous solution using insulin syringes with 30G short needles. […] At that time the injections were repeated just before […] departed on a trip to Europe.

[4] = tested on: eczema; experiment: Examples 30 and 37: itch and eczema
From the text: subject two, with a 25 year history of eczema, was provided a topical formulation of 6% C15 in a lotion made up of hydrophilic ointment USP 35% diluted with 65% water. […] They emphasized, however, that their eczema worsens in the autumn and winter, so their final judgment needs to be delayed from the summer season to several months later.
subject four with a 14 year history of eczema was provided the same lotion.
subject three, with a history of eczema for 35 years, was provided the same solution. […] They have expressed great gratitude and hopes that the same beneficial results will persist during the autumn and winter seasons.
subject two, with a 25 year history of eczema, was provided a topical formulation of 6% C15 in a lotion made up of hydrophilic ointment USP 35% diluted with 65% water. After ten days of topical applications, itch was relieved for intervals of 1.5 hour up to 24 hours. […] Sites of itch were treated with prompt application of the above lotion which completely aborted further development.
subject four with a 14 year history of eczema was provided the same lotion. […] Patient has moved from the area and has been lost to long term follow up.
subject three, with a history of eczema for 35 years, was provided the same formulation. […] They expressed great gratitude and hoped that the same beneficial results would persist during the autumn and winter months.
They reported: “I use it sparingly. If I feel any itch or see a little patch I put it on and it's gone like the next day. […] It's so great. It's miraculous!”

[5] = tested on: painful right shoulder; experiment: Example 24: osteoarthritis, shoulder
From the text: The same subject above has had painful right shoulder for several months.

[6] = tested on: painful right elbow; experiment: Example 24: osteoarthritis, elbow
Method: A subject presented with a history of painful right elbow for several weeks. They were provided with a topical solution of C15 8% in WP 82.
A subject with a history of right elbow for several months applied the above same solution to the elbo
On three other occasions, C15 1.5% aqueous solution 1 ml was injected subcutaneously in two lateral sites of the elbow and one site over extensor part of the elbow.

[7] = tested on: Aphthous Ulcers (Canker Sores); experiment: Example 20: aphthous ulcers (canker sores), topical
From the text: Two eroded painful sites 2-3 mm in diameter on the right side of the tongue worsened over 2 days in a subject. At bedtime of the 2nd day, the subject topically applied C15 3% in water: propylene glycol 8:2.

[8] = tested on: dermatitis of uncertain etiology; experiment: Example 32: itch of dermatitis of uncertain etiology
Method: subject one who had worked planting a new rock and flower garden during the day, in the evening became acutely aware of an itch sensation in the lower back, just below the beltline. […] Itch relief lasted for 2-3 hours; three additional applications were made during the night. […] Etiology was not ascertained.

[9] = tested on: psoriatic arthritis; experiment: Example 25: psoriatic arthritis, topical C15
From the text: A subject with a 42 year history of psoriasis, and psoriatic arthritis for the past 8 years, was provided a topical solution of C15 4% in WP 82. […] The subject has used topical formulations of C15 for over 12 weeks, comparing efficacy of 2%, 3.5% and 5% concentrations of C15.

[10] = tested on: post trauma pain; experiment: Example 33: post trauma pain of hand
From the text: A subject was provided a 9% solution of C15 in WEP 532 for possible use against itch or pain. Several weeks later they sent by e-mail the following message:
“Yesterday I slammed the top of my hand accidentally against a door. That really hurt and I could barely move my hand. Started to ice it and then realized that I had decided to keep one bottle of the pain medicine here at the shore. […] Like a miracle. Iced it after as I could tell a welt was forming. Again at bedtime I put a little of the pain med on it in case the earlier application wore off and iced again as it was a bit swollen. Looked red and maybe a little swollen this morning but no pain!”

[11] = 6% lotion as needed, person three

With `CCOC(=O)CN(C)C(N)=NC(C)=O` [Compound C15, N-acetyl ethyl creatinate] the “extent of pain relief” value [1] was “substantially relieve the pain but not completely”, the “whole body pain free” value ([2]; 3 ml of 1% solution (arginine 0.25%, pH 7), 1 ml into each of 3 abdominal sites, subcutaneous) was ≥ 95% and the “duration of pain free state” value ([2]; 3 ml, 3 sites) was 3.5 h. The “time to pain free state” value ([2]; 3 ml, 3 sites) was “Ten”, the “duration of pain free state” value ([2]; 5 sites, each 1 ml) was 4 h and the “time to pain free state” value ([2]; 5 sites, each 1 ml) was ≤ 10 min. The “whole body pain free” value ([2]; next day, 5 sites, each 1 ml of the same solution) was ≥ 95%, the duration of relief ([3]; first injections) was 2 weeks and the “extent of pain relief” value ([3]; five sites of upper back injected with 0.3 ml aqueous solution) was “Complete relief of pain”. The “time to pain relief” value ([3]; five sites, 0.3 ml) was “within the next hour”, the “duration of relief after repeated injections” value ([3]; repeated injections) was “lasting beyond two week period” and the “itch after 4 days of application” value [4, 11] was “itch was now negligible; also recorded: itch became negligible”. The “signs of eczema on skin” value [4, 11] was “skin was nearly entirely free of signs of eczema; also recorded: skin became nearly entirely free of signs of eczema”, the “extent of itch relief” value ([4]; 6% lotion, 2 weeks, person four) was “itch was relieved completely” and the “duration of itch relief after a single application” value ([4]; 6% lotion, person four) was 24 to 48 h. For the same molecule, the “eczema after ten days” value ([4]; 6% lotion, person two) was “felt that their eczema was undergoing resolution”, the “eczema at the end of the following February” value ([4]; 6% lotion, person two) was “eczema was still under almost complete resolution” and the “skin at the end of February” value ([4]; person three) was “their skin has remained clear”. The duration of relief ([5]; subcutaneous 1 ml) was 6 to 7 days, the “extent of pain relief” value ([5]; subcutaneous 1 ml of 1.5% aqueous solution, three occasions, person) was “complete relief of pain” and the “extent of pain relief” value ([6]; 1.5% aqueous solution 1 ml subcutaneous, three sites of elbow, person) was “complete relief of pain”. The duration of relief ([6]; 1.5% subcutaneous) was 24 to 30 h, the “time to pain relief” value ([6]; 1.5% subcutaneous) was “within an hour” and the relief of pain ([6]; 8% in WP 82, topical multiple times, person) was “No pain relieve was experienced”. The duration of relief ([6]; 8% in WP 82, topical, person) was 5 to 6 h, the relief of pain ([6]; 8% in WP 82, topical, person) was “relieved pain instantaneously completely” and the “extent of pain relief” value ([7]; 3% in water: propylene glycol 8:2, topical to tongue) was “Complete pain relief”. For the same molecule, the “clinical sign of lesions next day” value ([7]; 3% topical) was “No clinical sign of the lesions could be detected next day”, the return of pain ([7]; 3% topical) was “remained pain free throughout the night and did not return” and the “time to pain relief” value ([7]; 3% topical) was “within less than a minute”. The “extent of itch relief” value ([8]; 4% in water: propylene glycol 8:2, topical) was “Itch was completely relived”, the “duration of itch relief” value ([8]; 4% topical) was 2 to 3 h and the “resolution of dermatitis and itch” value ([8]; three additional applications during the night) was “The dermatitis and itch resolved early next day”. For the same molecule, the duration of relief ([9]; 4% in WP 82) was 6 to 24 h, the relief of pain ([9]; 4% in WP 82, topical to wrists, hands, fingers and ankles, person) was “almost instantaneous, complete relief of pain” and the “comparison of 2%, 3.5% and 5% concentrations” value ([9]; 5% administered as a spray mist) was “most effective of the three”. The “duration of complete pain relief” value ([9]; 5% spray mist) was 24 h, the relief of pain ([10]; 9% in WEP 532, topical to hand) was “in a minute or two the pain went away” and the pain next morning ([10]; second application at bedtime) was “no pain”.
